ChEMBL document CHEMBL2146453, “Synthesis of novel ursolic acid heterocyclic derivatives with improved abilities of antiproliferation and induction of p53, p21waf1 and NOXA in pancreatic cancer cells” (Bioorg Med Chem, 2012)

Columns and labels:
Type in all cases: functional, cell-based
PANC-1 = assay: Cytotoxicity against human PANC1 cells after 72 hrs by MTT assay; conditions: PANC-1, 72 h
MIA PaCa-2 = assay: Cytotoxicity against human MIAPaCa2 cells after 72 hrs by MTT assay; conditions: MIA PaCa-2, 72 h
A549 = assay: Cytotoxicity against human A549 cells after 72 hrs by MTT assay; conditions: A549, 72 h
MCF7 = assay: Cytotoxicity against human MCF7 cells after 72 hrs by MTT assay; conditions: MCF7, 72 h
ASPC1 = assay: Cytotoxicity against human AsPC1 cells after 72 hrs by MTT assay; conditions: ASPC1, 72 h
PC-3 = assay: Cytotoxicity against human PC3 cells after 72 hrs by MTT assay; conditions: PC-3, 72 h
HepG2 = assay: Cytotoxicity against human HepG2 cells after 72 hrs by MTT assay; conditions: HepG2, 72 h

With `COC(=O)[C@]12CC[C@@H](C)[C@H](C)[C@H]1C1=CC[C@@H]3[C@@]4(C)C/C(=C/n5ccnc5)C(=O)C(C)(C)[C@@H]4CC[C@@]3(C)[C@]1(C)CC2` the IC50 (PANC-1) was 5.1 µM, the IC50 (MIA PaCa-2) was 7.3 µM and the IC50 (A549) was 5.6 µM. It also gave an IC50 (MCF7) of 5.3 µM, an IC50 (ASPC1) of 5.8 µM and an IC50 (PC-3) of 6.8 µM. It also gave an IC50 (HepG2) of 2 µM.
For `COC(=O)[C@]12CC[C@@H](C)[C@H](C)[C@H]1C1=CC[C@@H]3[C@@]4(C)C/C(=C/O)C(=O)C(C)(C)[C@@H]4CC[C@@]3(C)[C@]1(C)CC2`, the IC50 (ASPC1) was 7.2 µM.
`C[C@H]1[C@H](C)CC[C@]2(C(=O)O)CC[C@]3(C)C(=CC[C@@H]4[C@@]5(C)CC[C@H](O)C(C)(C)[C@@H]5CC[C@]43C)[C@H]12` [URSOLIC ACID] gave an IC50 (PANC-1) of 14.9 µM, an IC50 (MIA PaCa-2) of 10.4 µM and an IC50 (A549) of 11.4 µM. It also gave an IC50 (MCF7) of 12.3 µM, an IC50 (ASPC1) of 12.6 µM and an IC50 (PC-3) of 20.8 µM. The IC50 (HepG2) was 15 µM.
With `C[C@H]1[C@H](C)CC[C@]2(C(=O)n3ccnc3)CC[C@]3(C)C(=CC(=O)[C@@H]4[C@@]5(C)CCC(=O)C(C)(C)[C@@H]5CC[C@]43C)[C@H]12` the IC50 (ASPC1) was 11.7 µM.
In the case of `C[C@H]1[C@H](C)CC[C@]2(C(=O)O)CC[C@]3(C)C(=CC(=O)[C@@H]4[C@@]5(C)CCC(=O)C(C)(C)[C@@H]5CC[C@]43C)[C@H]12`, the IC50 (ASPC1) is reported as 54.9 µM.
`C[C@H]1[C@H](C)CC[C@]2(C(=O)n3cnnc3)CC[C@]3(C)C(=CC[C@@H]4[C@@]5(C)C/C(=C/n6cnnc6)C(=O)C(C)(C)[C@@H]5CC[C@]43C)[C@H]12` showed an IC50 (ASPC1) of 3.9 µM.
`C[C@H]1[C@H](C)CC[C@]2(C(=O)O)CC[C@]3(C)C(=CC[C@@H]4[C@@]5(C)C/C(=C/O)C(=O)C(C)(C)[C@@H]5CC[C@]43C)[C@H]12` showed an IC50 (ASPC1) of 13.4 µM.
`CC(=O)O[C@H]1CC[C@]2(C)[C@H]3CC=C4[C@@H]5[C@@H](C)[C@H](C)CC[C@]5(C(=O)n5ccnc5C)CC[C@@]4(C)[C@]3(C)CC[C@H]2C1(C)C` showed an IC50 (ASPC1) of 20.2 µM.
With `CC(=O)O[C@H]1CC[C@]2(C)[C@H]3CC=C4[C@@H]5[C@@H](C)[C@H](C)CC[C@]5(C(=O)O)CC[C@@]4(C)[C@]3(C)CC[C@H]2C1(C)C` [O-ACETYLURSOLIC ACID] the IC50 (ASPC1) was 71 µM.
Work on `C[C@H]1[C@H](C)CC[C@]2(C(=O)O)CC[C@]3(C)C(=CC[C@@H]4[C@@]5(C)CCC(=O)C(C)(C)[C@@H]5CC[C@]43C)[C@H]12` [URSONIC ACID] yielded an IC50 (ASPC1) of 24.5 µM.
In the case of `C[C@H]1[C@H](C)CC[C@]2(C(=O)n3cnnc3)CC[C@]3(C)C(=CC(=O)[C@@H]4[C@@]5(C)CCC(=O)C(C)(C)[C@@H]5CC[C@]43C)[C@H]12`, the IC50 (ASPC1) is reported as 9.9 µM.
In the case of `Cc1nccn1C(=O)[C@]12CC[C@@H](C)[C@H](C)[C@H]1C1=CC(=O)[C@@H]3[C@@]4(C)CCC(=O)C(C)(C)[C@@H]4CC[C@@]3(C)[C@]1(C)CC2`, the IC50 (ASPC1) is reported as 5.1 µM.
`COC(=O)[C@]12CC[C@@H](C)[C@H](C)[C@H]1C1=CC(=O)[C@@H]3[C@@]4(C)C/C(=C/O)C(=O)C(C)(C)[C@@H]4CC[C@@]3(C)[C@]1(C)CC2` showed an IC50 (ASPC1) of 9 µM.
`CC(=O)O[C@H]1CC[C@]2(C)[C@H]3C(=O)C=C4[C@@H]5[C@@H](C)[C@H](C)CC[C@]5(C(=O)n5ccnc5C)CC[C@@]4(C)[C@]3(C)CC[C@H]2C1(C)C` was tested, and the IC50 (ASPC1) was 15.3 µM.
`COC(=O)[C@]12CC[C@@H](C)[C@H](C)[C@H]1C1=CC(=O)[C@@H]3[C@@]4(C)C/C(=C/n5ccnc5C)C(=O)C(C)(C)[C@@H]4CC[C@@]3(C)[C@]1(C)CC2` showed an IC50 (PANC-1) of 14.4 µM, an IC50 (MIA PaCa-2) of 8.3 µM and an IC50 (A549) of 18.7 µM. The IC50 (MCF7) was 3.5 µM, the IC50 (ASPC1) was 2.1 µM and the IC50 (PC-3) was 5.7 µM. It also gave an IC50 (HepG2) of 8.5 µM.
`COC(=O)[C@]12CC[C@@H](C)[C@H](C)[C@H]1C1=CC(=O)[C@@H]3[C@@]4(C)C/C(=C/n5cnnc5)C(=O)C(C)(C)[C@@H]4CC[C@@]3(C)[C@]1(C)CC2` gave an IC50 (PANC-1) of 12.1 µM, an IC50 (MIA PaCa-2) of 7.8 µM and an IC50 (A549) of 12.9 µM. The IC50 (MCF7) was 12.5 µM, the IC50 (ASPC1) was 8.1 µM and the IC50 (PC-3) was 9.5 µM. It also gave an IC50 (HepG2) of 7.9 µM.
Molecule `COC(=O)[C@]12CC[C@@H](C)[C@H](C)[C@H]1C1=CC(=O)[C@@H]3[C@@]4(C)C/C(=C/n5ccnc5)C(=O)C(C)(C)[C@@H]4CC[C@@]3(C)[C@]1(C)CC2` has an IC50 (PANC-1) of 18.2 µM, an IC50 (MIA PaCa-2) of 24.3 µM and an IC50 (A549) of 12.2 µM. The IC50 (MCF7) was 9.4 µM, the IC50 (ASPC1) was 2.3 µM and the IC50 (PC-3) was 12.9 µM. The IC50 (HepG2) was 27.6 µM.
Work on `Cc1nccn1C(=O)[C@]12CC[C@@H](C)[C@H](C)[C@H]1C1=CC[C@@H]3[C@@]4(C)CCC(=O)C(C)(C)[C@@H]4CC[C@@]3(C)[C@]1(C)CC2` yielded an IC50 (ASPC1) of 19.6 µM.
Molecule `C[C@H]1[C@H](C)CC[C@]2(C(=O)n3ccnc3)CC[C@]3(C)C(=CC[C@@H]4[C@@]5(C)CCC(=O)C(C)(C)[C@@H]5CC[C@]43C)[C@H]12` has an IC50 (ASPC1) of 15.2 µM.
`CC(=O)O[C@H]1CC[C@]2(C)[C@H]3C(=O)C=C4[C@@H]5[C@@H](C)[C@H](C)CC[C@]5(C(=O)n5cnnc5)CC[C@@]4(C)[C@]3(C)CC[C@H]2C1(C)C` showed an IC50 (ASPC1) of 10.2 µM.
Work on `CC(=O)O[C@H]1CC[C@]2(C)[C@H]3C(=O)C=C4[C@@H]5[C@@H](C)[C@H](C)CC[C@]5(C(=O)O)CC[C@@]4(C)[C@]3(C)CC[C@H]2C1(C)C` [11-OXOURSOLIC ACID ACETATE] yielded an IC50 (ASPC1) of 33.5 µM.
Work on `COC(=O)[C@]12CC[C@@H](C)[C@H](C)[C@H]1C1=CC[C@@H]3[C@@]4(C)CC[C@H](O)C(C)(C)[C@@H]4CC[C@@]3(C)[C@]1(C)CC2` [METHYL URSOLATE] yielded an IC50 (ASPC1) of 17.7 µM.
With `C[C@H]1[C@H](C)CC[C@]2(C(=O)n3cnnc3)CC[C@]3(C)C(=CC[C@@H]4[C@@]5(C)CCC(=O)C(C)(C)[C@@H]5CC[C@]43C)[C@H]12` the IC50 (ASPC1) was 19.2 µM.
Molecule `CC(=O)O[C@H]1CC[C@]2(C)[C@H]3CC=C4[C@@H]5[C@@H](C)[C@H](C)CC[C@]5(C(=O)n5cnnc5)CC[C@@]4(C)[C@]3(C)CC[C@H]2C1(C)C` has an IC50 (ASPC1) of 23.3 µM.
`CC(=O)O[C@H]1CC[C@]2(C)[C@H]3C(=O)C=C4[C@@H]5[C@@H](C)[C@H](C)CC[C@]5(C(=O)n5ccnc5)CC[C@@]4(C)[C@]3(C)CC[C@H]2C1(C)C` showed an IC50 (ASPC1) of 13.9 µM.
`CC(=O)O[C@H]1CC[C@]2(C)[C@H]3CC=C4[C@@H]5[C@@H](C)[C@H](C)CC[C@]5(C(=O)n5ccnc5)CC[C@@]4(C)[C@]3(C)CC[C@H]2C1(C)C` gave an IC50 (ASPC1) of 15.2 µM.
`Cc1nccn1/C=C1/C[C@]2(C)[C@H]3CC=C4[C@@H]5[C@@H](C)[C@H](C)CC[C@]5(C(=O)n5ccnc5C)CC[C@@]4(C)[C@]3(C)CC[C@H]2C(C)(C)C1=O` gave an IC50 (ASPC1) of 11.3 µM.
Work on `C[C@H]1[C@H](C)CC[C@]2(C(=O)n3ccnc3)CC[C@]3(C)C(=CC[C@@H]4[C@@]5(C)C/C(=C/n6ccnc6)C(=O)C(C)(C)[C@@H]5CC[C@]43C)[C@H]12` yielded an IC50 (ASPC1) of 5.1 µM.
`COC(=O)[C@]12CC[C@@H](C)[C@H](C)[C@H]1C1=CC[C@@H]3[C@@]4(C)C/C(=C/n5ccnc5C)C(=O)C(C)(C)[C@@H]4CC[C@@]3(C)[C@]1(C)CC2` was tested, and the IC50 (PANC-1) was 5.6 µM, the IC50 (MIA PaCa-2) was 5.6 µM and the IC50 (A549) was 5.3 µM. For the same molecule, the IC50 (MCF7) was 2.2 µM, the IC50 (ASPC1) was 2.1 µM and the IC50 (PC-3) was 3.5 µM. The IC50 (HepG2) was 4 µM.
